The text below walks through data of PubChem BioAssay AID316 (DTP/NCI, 2004).

Values joined by “and” are separate entries in the source; they are usually repeats but may differ in a detail not shown here. Equal values may be shown once. Inconclusive results and toxic doses are left out.

The experiment concerns P1534 leukemia ip, CD2F1 mice, survival T/C. As to the kind of experiment: NCI In Vivo Anticancer Drug Screen. Data for tumor model P1534 Leukemia (intraperitoneal) in CD2F1 (CDF1) mice. To be noted: endpoint: mean survival time, higher = longer survival. The procedure: The antitumor activity of compounds was measured in mice bearing transplantable tumors. Survival or tumor size were measured and the results are expressed as the measurement made in the treated group (T) divided by the measurement made in the vehicle treated control group (C). The tumor model used in this assay is P1534 Leukemia (intraperitoneal) in CD2F1 (CDF1) mice

Setting [1] is: dose: 0.16 mg/kg/injection, schedule: Q01DX010 (ip), vehicle: saline.
[2] abbreviates: dose: 0.25 mg/kg/injection, schedule: Q01DX010 (ip), vehicle: saline.
Setting [3] is: dose: 0.57 mg/kg/injection, schedule: Q01DX010 (ip), vehicle: saline.
The mark [4] stands for this setting: dose: 31.3 mg/kg/injection, schedule: Q01DX010 (ip), vehicle: saline.
[5] abbreviates: dose: 12.5 mg/kg/injection, schedule: Q01DX010 (sc), vehicle: steriod suspending solution.
Setting [6] is: dose: 25.0 mg/kg/injection, schedule: Q01DX010 (sc), vehicle: steriod suspending solution.
[7] abbreviates: dose: 50.0 mg/kg/injection, schedule: Q01DX010 (sc), vehicle: steriod suspending solution.
[8] abbreviates: dose: 100.0 mg/kg/injection, schedule: Q01DX010 (sc), vehicle: steriod suspending solution.
Setting [9] is: dose: 25.0 mg/kg/injection, schedule: Q01DX010 (ip), vehicle: saline.
[10] abbreviates: dose: 50.0 mg/kg/injection, schedule: Q01DX010 (ip), vehicle: saline.
Where [11] appears, read: dose: 100.0 mg/kg/injection, schedule: Q01DX010 (ip), vehicle: saline.
Where [12] appears, read: dose: 8.0 mg/kg/injection, schedule: Q01DX010 (ip), vehicle: saline.
The mark [13] stands for this setting: dose: 16.0 mg/kg/injection, schedule: Q01DX010 (ip), vehicle: saline.
The mark [14] stands for this setting: dose: 12.5 mg/kg/injection, schedule: Q01DX010 (ip), vehicle: saline.
The mark [15] stands for this setting: dose: 2.5 mg/kg/injection, schedule: Q01DX010 (ip), vehicle: saline.
Setting [16] is: dose: 5.0 mg/kg/injection, schedule: Q01DX010 (ip), vehicle: saline.
Setting [17] is: dose: 10.0 mg/kg/injection, schedule: Q01DX010 (ip), vehicle: saline.

`CC(=O)OC(C)(C)/C=C/C(=O)[C@](C)(O)[C@H]1[C@H](O)C[C@@]2(C)[C@@H]3CC=C4[C@@H](CC[C@H](O)C4(C)C)[C@]3(CO)C(=O)C[C@]12C`: the T/C runs as follows: under setting [1], 103 % of control; under setting [2], 100 % of control; (dose: 0.38 mg/kg/injection, schedule: Q01DX010 (ip), vehicle: saline) 103 % of control; under setting [3], 103 % of control.
`CCCCNc1ncnc2c1cnn2C`: the T/C was 100 % of control under setting [4]; 88 % of control and 100 % of control (dose: 62.5 mg/kg/injection, schedule: Q01DX010 (ip), vehicle: saline).
Turning to `CC/C(=C(/CC)c1ccc(O)cc1)c1ccc(O)cc1`, the T/C under setting [5] was 95 % of control and 100 % of control; the T/C under setting [6] is 95 % of control and 100 % of control; the T/C under setting [7] is 95 % of control and 100 % of control; the T/C under setting [8] is 90 % of control and 100 % of control.
On to `Cn1c(=O)c2c(ncn2C)n(C)c1=O`, for which the T/C is, setting by setting: under setting [9], 100 % of control; under setting [10], 100 % of control; under setting [11], 100 % of control.
Consider `CCNc1nncs1`, for which the T/C reads like this: under setting [12], 100 % of control; under setting [13], 96 % of control.
On to `COc1cc2c3c(c4cc(OC)c(OC)cc4c2cc1OC)CN1CCC[C@H]1C3`, for which the T/C was 115 % of control (dose: 3.9 mg/kg/injection, schedule: Q01DX010 (ip), vehicle: saline) and 107 % of control (dose: 7.8 mg/kg/injection, schedule: Q01DX010 (ip), vehicle: saline).
As for `C[C@]12CCC(=O)C[C@H]1CC[C@@H]1[C@@H]2CC[C@@]2(C)[C@H]1CC[C@]2(C)O`, the T/C under setting [7] is 100 % of control; the T/C under setting [8] is 100 % of control; the T/C (dose: 200.0 mg/kg/injection, schedule: Q01DX010 (sc), vehicle: steriod suspending solution) was 96 % of control; the T/C (dose: 400.0 mg/kg/injection, schedule: Q01DX010 (sc), vehicle: steriod suspending solution) is 96 % of control.
Consider `C[C@@H]1CCC([C@@H](C)[C@H]2CC[C@H]3[C@@H]4CC[C@H]5C[C@@H](O)CC[C@]5(C)[C@H]4CC[C@]23C)=NC1`, for which the T/C by setting is: under setting [14], 107 % of control; under setting [9], 103 % of control; under setting [10], 100 % of control; under setting [11], 100 % of control.
Consider `C=C(C(=O)OC1CC2CCC(C1)N2C)c1ccccc1` (stereo not given), for which the T/C was 92 % of control (dose: 1.25 mg/kg/injection, schedule: Q01DX010 (ip), vehicle: saline); 92 % of control under setting [15]; 100 % of control under setting [16]; 107 % of control under setting [17].
For `CC(=O)OC(C)(C)/C=C/C(=O)[C@](C)(O)[C@H]1[C@H](O)C[C@@]2(C)[C@@H]3CC=C4[C@@H](C[C@H](O)C(=O)C4(C)C)[C@]3(CO)C(=O)C[C@]12C`, the T/C is 103 % of control under setting [1], 107 % of control under setting [2] and 103 % of control under setting [3].
Take `CCC12CC(C(=O)OC)=C3Nc4cc(OC)ccc4C34CCN(CC3OC31)C42` (stereo not given): the T/C (dose: 3.75 mg/kg/injection, schedule: Q01DX010 (ip), vehicle: saline) is 96 % of control; the T/C (dose: 7.5 mg/kg/injection, schedule: Q01DX010 (ip), vehicle: saline) is 100 % of control; the T/C (dose: 15.0 mg/kg/injection, schedule: Q01DX010 (ip), vehicle: saline) is 90 % of control; the T/C (dose: 30.0 mg/kg/injection, schedule: Q01DX010 (ip), vehicle: saline) is 96 % of control.
Regarding `O=C(Nc1ccc(C2=NCCN2)cc1)c1cccc(C(=O)Nc2ccc(C3=NCCN3)cc2)c1`, the T/C by setting is: under setting [12], 109 % of control; under setting [13], 118 % of control; (dose: 32.0 mg/kg/injection, schedule: Q01DX010 (ip), vehicle: saline) 154 % of control; (dose: 64.0 mg/kg/injection, schedule: Q01DX010 (ip), vehicle: saline) 163 % of control and 168 % of control.
Turning to `CCn1cnc2c(=S)nc[nH]c21`, under setting [4], the T/C is 114 % of control.
On to `CC(=O)O[C@]1(C(C)=O)CC[C@H]2[C@@H]3C[C@H](C)C4=CC(=O)C=C[C@]4(C)[C@@]3(F)[C@@H](O)C[C@@]21C`, for which the T/C is 103 % of control under setting [5] and 92 % of control under setting [6].
Consider `NC1=NNC(=O)C1`, for which the T/C is 95 % of control (dose: 100.0 mg/kg/injection, schedule: Q01DX010 (ip), vehicle: water) and 95 % of control (dose: 150.0 mg/kg/injection, schedule: Q01DX010 (ip), vehicle: water).
As for `O=C(NCCCCC(NC(=O)OCc1ccccc1)C(=O)NCCCNCCCCNCCCNC(=O)C(CCCCNC(=O)OCc1ccccc1)NC(=O)OCc1ccccc1)OCc1ccccc1` (stereo not given), the T/C reads like this: under setting [15], 100 % of control; under setting [16], 100 % of control; under setting [17], 100 % of control.
With `C1CCNCC1`, the T/C reads like this: under setting [14], 96 % of control; under setting [9], 100 % of control; under setting [10], 100 % of control; under setting [11], 96 % of control.
`CCc1c(CC(=O)O)c2cc(C)ccc2n1Cc1ccc(Cl)cc1`: the T/C under setting [10] was 107 % of control.
As for `C[n+]1c2ccccc2nc2c(N)cc(N)cc21`, for the setting “dose: 5.2 mg/kg/injection, schedule: Q01DX010 (ip), vehicle: saline”, the T/C is 114 % of control.
Turning to `CC1CCC2C(C)C3C(CC4C5CC=C6CC(OC7OC(CO)C(O)C(OC8OC(CO)C(O)C(O)C8O)C7OC7OC(C)C(O)C(O)C7O)CCC6(C)C5CCC43C)N2C1` (stereo not given), the T/C by setting is: under setting [10], 96 % of control; under setting [11], 100 % of control; (dose: 200.0 mg/kg/injection, schedule: Q01DX010 (ip), vehicle: saline) 96 % of control; (dose: 400.0 mg/kg/injection, schedule: Q01DX010 (ip), vehicle: saline) 92 % of control.
As to `Cc1cc(O)c2cc3c(O)c(O)ccc3cc2c1`, the T/C by setting is: (dose: 1.0 mg/kg/injection, schedule: Q01DX010 (ip), vehicle: saline) 100 % of control; (dose: 2.0 mg/kg/injection, schedule: Q01DX010 (ip), vehicle: saline) 103 % of control.
